# According to patent publication US12440496B2, “Natriuretic peptide receptor a agonists useful for the treatment of cardiometabolic diseases, kidney disease and diabetes” (Merck Sharp & Dohme LLC, priority 2019, dated 2025):
# Where a name gives a salt, the structure may show the parent alone.
# Molecular target: T1, hNPRA (Homo sapiens, UniProt P16066)
# T1 construct: expressed in transfected cells
# T1 sequence (P16066 33-1061): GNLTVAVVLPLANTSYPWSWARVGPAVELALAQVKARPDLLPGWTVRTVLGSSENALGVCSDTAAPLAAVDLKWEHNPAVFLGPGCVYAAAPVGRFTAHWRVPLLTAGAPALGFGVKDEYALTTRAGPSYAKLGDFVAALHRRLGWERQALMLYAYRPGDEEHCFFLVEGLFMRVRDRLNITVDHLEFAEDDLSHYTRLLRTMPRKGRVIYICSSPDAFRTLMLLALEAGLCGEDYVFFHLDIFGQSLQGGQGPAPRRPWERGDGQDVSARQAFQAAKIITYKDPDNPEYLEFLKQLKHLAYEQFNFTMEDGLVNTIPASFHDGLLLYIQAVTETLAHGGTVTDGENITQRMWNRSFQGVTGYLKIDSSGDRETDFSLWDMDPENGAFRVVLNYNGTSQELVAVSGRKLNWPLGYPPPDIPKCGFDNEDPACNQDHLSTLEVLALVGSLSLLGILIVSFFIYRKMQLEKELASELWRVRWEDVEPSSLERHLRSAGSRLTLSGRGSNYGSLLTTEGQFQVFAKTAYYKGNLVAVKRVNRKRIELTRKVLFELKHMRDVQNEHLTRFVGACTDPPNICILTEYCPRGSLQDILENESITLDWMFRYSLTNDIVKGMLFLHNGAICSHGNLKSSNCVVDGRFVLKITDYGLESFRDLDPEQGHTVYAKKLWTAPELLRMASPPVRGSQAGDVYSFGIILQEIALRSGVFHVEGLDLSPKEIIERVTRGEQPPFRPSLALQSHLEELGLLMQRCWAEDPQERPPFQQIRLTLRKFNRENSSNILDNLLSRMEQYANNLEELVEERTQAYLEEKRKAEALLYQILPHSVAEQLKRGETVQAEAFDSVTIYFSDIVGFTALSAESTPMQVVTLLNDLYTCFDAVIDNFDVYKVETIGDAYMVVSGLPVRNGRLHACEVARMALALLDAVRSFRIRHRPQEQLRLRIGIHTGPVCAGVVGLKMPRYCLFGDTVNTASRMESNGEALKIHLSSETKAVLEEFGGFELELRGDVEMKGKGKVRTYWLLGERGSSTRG
# Assay: NPRA Functional Cell Assay (cGMP HTRF, NPRA HEK JumpIn stable cells)
# Assay type: cell-based
# Settings: cGMP production, 1 hour at 37° C., 10-point dose response
# Text: NPRA Functional Cell Assay
# Assay Buffer components HEPES and Opti-MEM® I Reduced-Serum with Glutamine (no phenol red) were from Gibco/Invitrogen (Thermo Fisher Scientific, Waltham, MA USA). 3-Isobutyl-1-methylxanthine (IBMX) and 4-(3-Butoxy-4-methoxybenzyl) imidazolidin-2-one (RO20) were obtained from Sigma-Aldrich (St. Louis, MO, USA). DPBS (Dulbecco's phosphate-buffered saline) without Ca2+ and Mg2+ was purchased from GE Healthcare Bio-Sciences (Pittsburgh, PA, USA). 384 well white Optiplates were from Perkin Elmer (Atlantic Highlands, NJ, USA). Human ANP (Atrial Natriuretic Peptide) (1-28) was purchased from Sigma-Aldrich (Catalog #A1663) and rat ANP (1-28) from Bachem (Torrance, CA, USA) (Catalog #H2100). Human-BNP (Human-Brain Natriuretic Peptide) (1-32 AA) was purchased from American Peptide Company (Sunnyvale, CA, USA) (product No. 14-1-90). cGMP kits were purchased from Cisbio. The assay ready frozen (ARF) Human/rat/dog NPRA HEK JumpIn Stable frozen cells (low passage number 5-11) were prepared in-house.
# Test compounds were titrated in DMSO in a 10-point dose response in a separate step followed by a 100-fold dilution into the reaction. Positive response for each assay was determined using 10 nM rat-ANP peptide (rat cells) or 50 nM h-ANP peptide (human and dog cells).
# Cells were thawed, washed with DPBS and resuspended in assay buffer (Opti-MEM+Glutamine, phenol red free media, 10 mM HEPES, 100 uM IBMX and 100 uM RO20) that was warmed to 37° C. Cells were then transferred to microplates via a Microplate Combi dispenser at a density of 1500, 400 and 1200 cells/well for human, rat and dog cells respectively, followed by acoustic transfer (Echo) of compound.
# (§1) Compounds and cells were incubated at 37° C. with 5% CO2 for 1 hour, after which the cells were lysed and cGMP was captured using a CisBio cGMP HTRF assay kit. The TRF signal was measured with an Envision plate reader (emission set to 615 and 665 nm) after 1 hour incubation at ambient temperature. The TRF signal was converted to [cGMP] through the use of a cGMP calibration curve on each microplate. EC50's were generated from the resulting dose response curves by use of a 4 parameter logistic algorithm.
# Assay Buffer components HEPES and Opti-MEM® I Reduced-Serum with Glutamine (no phenol red) were from Gibco/Invitrogen. 3-Isobutyl-1-methylxanthine (IBMX) and 4-(3-Butoxy-4-methoxybenzyl) imidazolidin-2-one (RO20) were obtained from Sigma. DPBS (Dulbecco's phosphate-buffered saline) without Ca2+ and Mg2+ was purchased from GE Healthcare Bio-Sciences (Pittsburgh, PA, USA). 384 well white Optiplates were from Perkin Elmer (Atlantic Highlands, NJ, USA). Human ANP (1-28) was purchased from Sigma (A1663) and rat ANP (1-28) from Bachem (H2100). Human-BNP (1-32 AA) was purchased from American Peptide Company (Sunnyvale, CA, USA) (product No. 14-1-90). cGMP kits were purchased from Cisbio (Bedford, MA, USA). The assay ready frozen (ARF) Human/rat/dog NPRA HEK JumpIn Stable frozen cells (low passage number 5-11) were prepared in-house.
# as §1, with “Envision®” for “Envision”, “reader (Perkin Elmer)” for “reader”
# hNPRA EC50 (nM) were determined for the compounds of Example 1 through Example 273 and are reported in the Experimental section of this application.
row,EC50,SMILES
1,939 nM,"CN1CC(NC(=O)c2cccc([C@@H](CCN3CC[C@H](C(=O)O)C3)NC(=O)c3nc4cc5c(nc4s3)CC[C@H](C(C)(C)C)C5)c2)C1 (racemic) [Example 113, rac-(3S)-1-[rac-(3R)-3-[3-[(1-methylazetidin-1-ium-3-yl)carbamoyl]phenyl]-3-[[rac-(7S)-7-tert-butyl-5,6,7,8-tetrahydrothiazolo[5,4-b]quinoline-2-carbonyl]amino]propyl]pyrrolidine-3-carboxylic acid; 2,2,2-trifluoroacetate]"
2,679 nM,"CC(C)(C)[C@H]1CCc2nc3sc(C(=O)N[C@H](CCN4CC(O)C4)c4ccc(-c5ccc(=O)[nH]c5)cc4)cc3cc2C1 (racemic) [Example 48, rac-(6S)-6-tert-butyl-N-[rac-(1R)-3-(3-hydroxyazetidin-1-ium-1-yl)-1-[4-(6-oxo-1H-pyridin-3-yl)phenyl]propyl]-5,6,7,8-tetrahydrothieno[2,3-b]quinoline-2-carboxamide;formate]"
3,186 nM,"CN1CC(NC(=O)c2cccc([C@@H](CCN3CCC(CO)CC3)NC(=O)c3nc4cc5c(nc4s3)CC[C@H](C(C)(C)C)C5)c2)C1 (racemic) [Example 104, rac-(7S)-7-tert-butyl-N-[rac-(1R)-3-[4-(hydroxymethyl)-1-piperidyl]-1-[3-[(1-methylazetidin-1-ium-3-yl)carbamoyl]phenyl]propyl]-5,6,7,8-tetrahydrothiazolo[5,4-b] quinoline-2-carboxamide; 2,2,2-trifluoroacetate]"
4,1660 nM,"CC(C)(C)[C@H]1CCc2nc3sc(C(=O)N[C@H](CCN4CCC(O)CC4)c4ccc(-c5cnsn5)cc4)nc3cc2C1 (racemic) [Example 183, rac-(7S)-7-tert-butyl-N-[rac-(1R)-3-(4-hydroxy-1-piperidyl)-1-[4-(1,2,5-thiadiazol-3-yl)phenyl]propyl]-5,6,7,8-tetrahydrothiazolo[5,4-b]quinoline-2-carboxamide]"
5,655 nM,"CC(C)(C)[C@H]1CCc2nc3sc(C(=O)N[C@H](CCN4CCC5(CC4)CNC(=O)O5)c4ccc(-c5ccc(=O)[nH]c5)cc4)cc3cc2C1 (racemic) [Example 40, rac-(6S)-6-tert-butyl-N-[rac-(1R)-3-(2-oxo-1-oxa-3-aza-8-azoniaspiro[4.5]decan-8-yl)-1-[4-(6-oxo-1H-pyridin-3-yl)phenyl]propyl]-5,6,7,8-tetrahydrothieno[2,3-b]quinoline-2-carboxamide;formate]"
6,1020 nM,"CC(C)(C)[C@H]1CCc2nc3sc(C(=O)N[C@H](CCN4CCC(O)CC4)c4ccc(-c5ccncc5N)cc4)nc3cc2C1 (racemic) [Example 175, rac-(7S)-7-tert-butyl-N-[rac-(1R)-1-[4-(3-amino-4-pyridyl)phenyl]-3-(4-hydroxy-1-piperidyl)propyl]-5,6,7,8-tetrahydrothiazolo[5,4-b]quinoline-2-carboxamide]"
7,914 nM,"Cn1nccc1-c1ccc([C@@H](CCN2CCC(O)CC2)NC(=O)c2nc3cc4c(nc3s2)CC[C@H](C(C)(C)C)C4)cc1 (racemic) [Example 81, rac-(7S)-7-tert-butyl-N-[rac-(1R)-3-(4-hydroxypiperidin-1-ium-1-yl)-1-[4-(2-methylpyrazol-3-yl)phenyl]propyl]-5,6,7,8-tetrahydrothiazolo[5,4-b]quinoline-2-carboxamide; formate]"
8,1800 nM,"CC(C)(C)[C@H]1CCc2nc3sc(C(=O)N[C@H](CCNC4CCNC4=O)c4ccc(-c5ccc(=O)[nH]c5)cc4)cc3cc2C1 (mixture of isomers) [Example 67, (2-oxopyrrolidin-3-yl)-[rac-(3R)-3-[4-(6-oxo-1H-pyridin-3-yl)phenyl]-3-[rac-(6S)-6-tert-butyl-5,6,7,8-tetrahydrothieno[2,3-b]quinoline-2-carbonyl]amino]propyl] ammonium;formate]"
9,645 nM,"CN(CCC(=O)O)CC[C@@H](NC(=O)c1nc2cc3c(nc2s1)CC[C@H](C(C)(C)C)C3)c1cccc(C(=O)NC2CN(C)C2)c1 (racemic) [Example 111, 3-[methyl-[rac-(3R)-3-[3-[(1-methylazetidin-1-ium-3-yl)carbamoyl]phenyl]-3-[[rac-(7S)-7-tert-butyl-5,6,7,8-tetrahydrothiazolo[5,4-b]quinoline-2-carbonyl]amino]propyl]amino] propanoic acid; 2,2,2-trifluoroacetate]"
10,160 nM,"CN1CC(NC(=O)c2cccc([C@@H](CCN3CCC(c4nnn[nH]4)CC3)NC(=O)c3nc4cc5c(nc4s3)CC[C@H](C(C)(C)C)C5)c2)C1 (racemic) [Example 103, rac-(7S)-7-tert-butyl-N-[rac-(1R)-1-[3-[(1-methylazetidin-1-ium-3-yl)carbamoyl]phenyl]-3-[4-(1H-tetrazol-5-yl)-1-piperidyl]propyl]-5,6,7,8-tetrahydrothiazolo[5,4-b] quinoline-2-carboxamide; 2,2,2-trifluoroacetate]"
11,243 nM,"CN(C)CC1(O)CCN(CC[C@@H](NC(=O)c2nc3cc4c(nc3s2)CC[C@H](C(C)(C)C)C4)c2ccc(-c3cnc(O)c(F)c3)cc2)CC1 (racemic) [Example 200, rac-(7S)-7-tert-butyl-N-[rac-(1R)-3-[4-[(dimethylamino)methyl]-4-hydroxy-piperidin-1-ium-1-yl]-1-[4-(5-fluoro-6-hydroxy-3-pyridyl)phenyl]propyl]-5,6,7,8-tetrahydrothiazolo[5,4-b]quinoline-2-carboxamide; formate]"
12,682 nM,"CC(C)(C)[C@H]1CCc2nc3sc(C(=O)N[C@H](CCN4CCC(O)CC4)c4cccc(C(=O)NCCN5CCOCC5)c4)nc3cc2C1 (racemic) [Example 150, rac-(7S)-7-tert-butyl-N-[rac-(1R)-3-(4-hydroxy-1-piperidyl)-1-[3-(2-morpholinoethylcarbamoyl)phenyl]propyl]-5,6,7,8-tetrahydrothiazolo[5,4-b]quinoline-2-carboxamide]"
